According to article PMC6921279 (Frontiers in Endocrinology, 2019):
Ends that are not written are not given here.

Columns and labels:
[1] = test system: CRF1R-mediated ERK1/2 phosphorylation; test: Modulation of CRF-stimulated ERK1/2 phosphorylation in COS-7 cells expressing HA-CRF1R; assay type: cell-based; settings: 30 min pretreatment, 100 nM CRF, 5 min
Description: Plasmid pRK5 encoding the carboxyl terminus of βARK that contains its βγ-binding domain (ct-βARK) was kindly provided by Dr. W. Koch (Center for Translational Medicine, Temple University, Philadelphia, PA), which is a scavenger for G protein βγ subunits ([25]). […] Plasmid pUSEamp encoding dominant-negative Akt-K179M (dn-Akt) was from Upstate Biotechnology (Lake Placid, NY).
COS-7 cells (from the American Type Culture Collection) were cultured at 37°C in a humidified atmosphere of 95% air, 5% CO2, in DMEM supplemented with 10% FBS, 100 μg/ml streptomycin, and 100 units/ml penicillin (COS-7 growth medium). Transient transfections were performed using LipofectAMINE (Life Technologies: Gaithersburg, MD) as described previously ([27]). Cells were seeded at 8 × 10^5 cells/10-cm dish in COS-7 medium and cultured for 3 days before transfection. COS-7 cells were transfected in 5 ml/dish OptiMEM containing 10 μg/ml LipofectAMINE with empty vector, pcDNA3 encoding the HA-CRF1R or the HA-CRF1R-Δ386 mutant. […] After replacing the transfection medium with fresh growth medium, transfected COS-7 cells were cultured for 1 day. Subsequently, cells were re-seeded in 6-well plates and cultured for an additional day prior to the experiment.
(§1) The protocols for measuring total and phosphorylated ERK1/2, c-Src, PYK2, Akt, and EGFR have been previously published ([28], [29]). After cells were cultured to 60–70% confluence, they were serum-deprived for 24 h. On the day of the experiment, cells were treated with the indicated ligands and inhibitors. […] After treatment, cells were placed on ice, the media was aspirated, and the cells were washed twice with ice-cold PBS and lysed in 100 μl of Laemmli sample buffer 1X. The lysates were briefly sonicated, heated at 95°C for 5 min, and centrifuged for 5 min at 14,000 rpm. Resulting supernatants were loaded in separate lanes of a 10% SDS-PAGE gels and electrophoresed. Next, Western transfer on to PDVF membranes was completed. The Western blots were then probed with specific antibodies targeting phosphorylated and non-phosphorylated forms of ERK1/2, c-Src, PYK2, Akt, and EGFR for primary immunodetection. After blots were probed with horseradish peroxidase-conjugated secondary antibody, protein bands were visualized with enhanced chemiluminescence ECL reagent (Amersham Pharmacia Biotech, Piscataway, NJ or Pierce Biotechnology, Rockford, IL) and scanned using the GS-800 Calibrated Imaging Densitometer (Bio-Rad). The labeled bands were quantified using the Quantity One 4.6.3 software program (Bio-Rad).
(§2) Total cell lysates were separated by SDS-PAGE and analyzed by immunoblotting with anti-p-ERK1/2 Thr^202/Tyr^204, as described in Materials and Methods. ERK1/2 phosphorylation was quantitated by densitometry, and mean values were plotted from five independent experiments.
Total cell lysates were separated by SDS-PAGE and analyzed by immunoblotting with anti-p-ERK1/2 Thr^202/Tyr^204 (A–D) or anti-p-EGFR Tyr^1068 (E), as described in Materials and Methods. ERK1/2 and EGFR phosphorylation were quantitated by densitometry, and mean values were plotted from three to five independent experiments.
Total cell lysates were separated by SDS-PAGE and analyzed by immunoblotting with anti-p-ERK1/2 Thr^202/Tyr^204, as described in Materials and Methods. ERK1/2 phosphorylation was quantitated by densitometry, and mean values were plotted from three to five independent experiments.

[2] = test system: CATH.a, rat fetal microglial, locus coeruleus, and transfected CHO cells; settings: H89; cited from earlier work
Excerpt: (§3) Defining the molecular mechanisms for ERK1/2 signaling by a GPCR has become a significant focus of signal transduction research due to the multifaceted pathways mediating signaling via the ERK1/2-MAP kinase cascade. A significant role of the ERK1/2-MAP kinase pathway has been recognized in the biological action of both CRF1R and CRF2R. ERK1/2 is widely distributed in the brain and is considered an essential regulator of the molecular processes involved in response to stress ([6], [64]). It is well-established that most GPCRs signal via ERK1/2-MAP kinase cascades through distinct Gi-, Gs-, and ...

fetal hippocampal cells = settings: H89 pretreatment; cited from earlier work
Excerpt: as §3

[3] = test system: CRF1R-expressing SK-N-MC neuroblastoma cells; test: ERK1/2 phosphorylation in CRF1R-expressing SK-N-MC neuroblastoma cells; assay type: cell-based; settings: 100 ng/ml FGF, 2 or 5 min
Description: as §1, with “After blots were probed with horseradish peroxidase-conjugated secondary antibody, protein bands were visualized with enhanced chemiluminescence ECL reagent (Amersham Pharmacia Biotech, Piscataway, NJ or Pierce Biotechnology, Rockford, IL) and scanned using the GS-800 Calibrated Imaging Densitometer (Bio-Rad).” left out
Supplementary Figure S2. […] Total cell lysates were separated by SDS-PAGE and analyzed by immunoblotting with anti-p-ERK1/2 Thr202/Tyr204, as described in materials and methods. […]

EGFR = settings: Ucn1, CRF1R-expressing HEK293; cited from earlier work
[4] = test system: PMA-stimulated ERK1/2 phosphorylation; test: Modulation of PMA-stimulated ERK1/2 phosphorylation in COS-7 cells; assay type: cell-based; settings: BIM 1 μM, 30 min pretreatment; 100 nM PMA, 15 min
Description: COS-7 cells (from the American Type Culture Collection) were cultured at 37°C in a humidified atmosphere of 95% air, 5% CO2, in DMEM supplemented with 10% FBS, 100 μg/ml streptomycin, and 100 units/ml penicillin (COS-7 growth medium). Transient transfections were performed using LipofectAMINE (Life Technologies: Gaithersburg, MD) as described previously ([27]). Cells were seeded at 8 × 10^5 cells/10-cm dish in COS-7 medium and cultured for 3 days before transfection. COS-7 cells were transfected in 5 ml/dish OptiMEM containing 10 μg/ml LipofectAMINE with empty vector, pcDNA3 encoding the HA-CRF1R or the HA-CRF1R-Δ386 mutant. […]
The protocols for measuring total and phosphorylated ERK1/2, c-Src, PYK2, Akt, and EGFR have been previously published ([28], [29]). […] The labeled bands were quantified using the Quantity One 4.6.3 software program (Bio-Rad).
as §2, with “Figure 2 CRF-induced ERK1/2 phosphorylation is dependent on Gi protein. […] Total” for “Total”, “experiments. […]” for “experiments.”
Total cell lysates were separated by SDS-PAGE and analyzed by immunoblotting with anti-p-ERK1/2 Thr202/Tyr204, as described in materials and methods. […]

[5] = test system: basal ERK1/2 or Akt phosphorylation; test: Basal ERK1/2 and Akt phosphorylation in COS-7 cells expressing CRF1R; assay type: cell-based; settings: 1 µM BIM, 30 min
Description: as §1, with “After blots were probed with horseradish peroxidase-conjugated secondary antibody, protein bands were visualized with enhanced chemiluminescence ECL reagent (Amersham Pharmacia Biotech, Piscataway, NJ or Pierce Biotechnology, Rockford, IL) and scanned using the GS-800 Calibrated Imaging Densitometer (Bio-Rad).” left out, “(Bio-Rad). […]” for “(Bio-Rad).”
Total cell lysates were separated by SDS-PAGE and analyzed by immunoblotting with anti-p-Akt Ser473 or anti-p-ERK1/2 Thr202/Tyr204, as described in materials and methods. […]

## O=S(=O)(NCCNC/C=C/c1ccc(Br)cc1)c1cccc2cnccc12 [H89]
[1]; H89 500 nM
  effect on CRF-stimulated ERK1/2 phosphorylation: failed to inhibit CRF-stimulated ERK1/2 phosphorylation
[2]
  effect on CRF1R-mediated ERK signaling: failed to inhibit CRF1R-mediated ERK signaling
Fetal hippocampal cells
  effect on CRF1R-mediated ERK phosphorylation: only produced a small reduction in CRF1R-mediated ERK phosphorylation

## fibroblast growth factor
[3]
  ERK1/2 phosphorylation: induced strong ERK1/2 phosphorylation

## Ucn1: urocortin 1 (DNPSLSIDLTFHLLRTLLELARTQSQRERAEQNRIIFDSV; ends and bridges not checked; UniProt P55089 83-122, looked up)
EGFR
  EGFR transactivation: stimulated EGFR transactivation

## CN(C)CCCn1cc(C2=C(c3c[nH]c4ccccc34)C(=O)NC2=O)c2ccccc21 [BIM, bisindolylmaleimide I]
[1]; BIM 1 μM
  CRF-stimulated ERK1/2 activation, fold increase: ~ 1.6 -fold increase over CRF stimulation
[4]
  effect on PMA-induced ERK1/2 phosphorylation: inhibited ERK1/2 phosphorylation resulting from PMA-induced PKC activation
[5]
  effect on basal ERK1/2 activation: small increase in ERK1/2 activation
